Laboratory results as given in ChEMBL document CHEMBL1201862, “PubChem BioAssay data set” (2004).
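A five-concentration, 48-hour dose response in 96-well plates underlies each endpoint, interpolated linearly between surrounding concentrations. GI50 is the concentration that inhibits growth by half.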 Calls of active or inactive are those of the source. Rule as the data show it: active = GI50 up to about 1.1 µM and inactive = higher.

Columns and labels:
Test in all cases: DTP human tumour cell line panel, 48 h
HCT-15 = tested on: HCT-15
EKVX = tested on: EKVX
OVCAR-4 = tested on: OVCAR-4
MOLT-4 = tested on: MOLT-4
NCI-H23 = tested on: NCI-H23
SF-295 = tested on: SF-295
UACC-62 = tested on: UACC-62
NCI-H460 = tested on: NCI-H460
ACHN = tested on: ACHN
TK-10 = tested on: TK-10
HOP-92 = tested on: HOP-92
Malme-3M = tested on: Malme-3M
SK-MEL-28 = tested on: SK-MEL-28
IGROV-1 = tested on: IGROV-1
HCC 2998 = tested on: HCC 2998
SF-539 = tested on: SF-539
HCT-116 = tested on: HCT-116
RPMI-8226 = tested on: RPMI-8226
SK-MEL-2 = tested on: SK-MEL-2

## O=C(/C=C/c1cccs1)c1ccc(C(=O)/C=C/c2cccs2)cc1
HCT-15
  GI50: > 100 µM
EKVX
  GI50: > 100 µM (inactive)
OVCAR-4
  GI50: > 100 µM (inactive)
MOLT-4
  GI50: > 100 µM (inactive)
NCI-H23
  GI50: > 100 µM (inactive)
SF-295
  GI50: > 100 µM (inactive)
UACC-62
  GI50: > 100 µM (inactive)
NCI-H460
  GI50: > 100 µM (inactive)
ACHN
  GI50: > 100 µM (inactive)
TK-10
  GI50: > 100 µM (inactive)
HOP-92
  GI50: > 100 µM (inactive)
Malme-3M
  GI50: > 100 µM (inactive)
SK-MEL-28
  GI50: > 100 µM (inactive)
IGROV-1
  GI50: > 100 µM (inactive)
HCC 2998
  GI50: > 100 µM (inactive)
SF-539
  GI50: > 100 µM (inactive)

## Nc1ccc(OCC(O)N2C(=O)c3ccccc3C2=O)cc1 (stereo unspecified)
HCT-15
  GI50: > 100 µM
EKVX
  GI50: > 100 µM (inactive)
OVCAR-4
  GI50: > 100 µM (inactive)
MOLT-4
  GI50: > 100 µM (inactive)
SF-295
  GI50: > 100 µM (inactive)
UACC-62
  GI50: > 100 µM (inactive)
NCI-H460
  GI50: > 100 µM (inactive)
ACHN
  GI50: > 100 µM (inactive)
TK-10
  GI50: > 100 µM (inactive)
Malme-3M
  GI50: > 100 µM (inactive)
SK-MEL-28
  GI50: > 100 µM (inactive)
HCT-116
  GI50: > 100 µM (inactive)
RPMI-8226
  GI50: > 100 µM (inactive)
IGROV-1
  GI50: > 100 µM (inactive)
HCC 2998
  GI50: > 100 µM (inactive)

## C=CCCC(=O)CC(=O)OCc1ccccc1
HCT-15
  GI50: > 100 µM
EKVX
  GI50: > 100 µM (inactive)
OVCAR-4
  GI50: > 100 µM (inactive)
MOLT-4
  GI50: > 100 µM (inactive)
NCI-H23
  GI50: 8.47 µM (inactive)
SF-295
  GI50: > 100 µM (inactive)
UACC-62
  GI50: > 100 µM (inactive)
SK-MEL-2
  GI50: > 100 µM (inactive)
NCI-H460
  GI50: > 100 µM (inactive)
ACHN
  GI50: > 100 µM (inactive)
TK-10
  GI50: > 100 µM (inactive)
HOP-92
  GI50: > 100 µM (inactive)
Malme-3M
  GI50: > 100 µM (inactive)
HCT-116
  GI50: > 100 µM (inactive)
RPMI-8226
  GI50: > 100 µM (inactive)
IGROV-1
  GI50: > 100 µM (inactive)
HCC 2998
  GI50: > 100 µM (inactive)
SF-539
  GI50: > 100 µM (inactive)

## CC(=O)C1C(=O)C(=O)N(c2ccc(Cl)c(Cl)c2)C1=O (stereo unspecified)
HCT-15
  GI50: > 100 µM
EKVX
  GI50: > 100 µM (inactive)
MOLT-4
  GI50: > 100 µM (inactive)
NCI-H23
  GI50: > 100 µM (inactive)
SF-295
  GI50: > 100 µM (inactive)
UACC-62
  GI50: > 100 µM (inactive)
SK-MEL-2
  GI50: > 100 µM (inactive)
NCI-H460
  GI50: > 100 µM (inactive)
ACHN
  GI50: > 100 µM (inactive)
TK-10
  GI50: > 100 µM (inactive)
HOP-92
  GI50: > 100 µM (inactive)
SK-MEL-28
  GI50: > 100 µM (inactive)
HCT-116
  GI50: > 100 µM (inactive)
IGROV-1
  GI50: > 100 µM (inactive)
HCC 2998
  GI50: > 100 µM (inactive)
SF-539
  GI50: > 100 µM (inactive)

## O=C(O)CSc1ccc2nc3ccccc3c(O)c2c1
HCT-15
  GI50: > 100 µM
OVCAR-4
  GI50: > 100 µM (inactive)
MOLT-4
  GI50: > 100 µM (inactive)
NCI-H23
  GI50: > 100 µM (inactive)
SF-295
  GI50: > 100 µM (inactive)
UACC-62
  GI50: > 100 µM (inactive)
NCI-H460
  GI50: > 100 µM (inactive)
ACHN
  GI50: > 100 µM (inactive)
TK-10
  GI50: > 100 µM (inactive)
HOP-92
  GI50: > 100 µM (inactive)
Malme-3M
  GI50: > 100 µM (inactive)
SK-MEL-28
  GI50: > 100 µM (inactive)
HCT-116
  GI50: > 100 µM (inactive)
RPMI-8226
  GI50: > 100 µM (inactive)
IGROV-1
  GI50: > 100 µM (inactive)
HCC 2998
  GI50: > 100 µM (inactive)

## N#CC1=C(N)n2c(s/c(=C\c3ccc(Cl)cc3)c2=O)=C(c2nc3ccccc3[nH]2)C1c1ccc(Cl)cc1 (stereo unspecified)
HCT-15
  GI50: 2.06 µM
EKVX
  GI50: 1.88 µM (inactive)
OVCAR-4
  GI50: 2.01 µM (inactive)
MOLT-4
  GI50: 1.47 µM (inactive)
NCI-H23
  GI50: 0.426 µM (active)
UACC-62
  GI50: 1.23 µM (inactive)
SK-MEL-2
  GI50: 2.14 µM (inactive)
NCI-H460
  GI50: 1.85 µM (inactive)
ACHN
  GI50: 2.29 µM (inactive)
TK-10
  GI50: 0.596 µM (active)
HOP-92
  GI50: 0.203 µM (active)
Malme-3M
  GI50: 2.25 µM (inactive)
SK-MEL-28
  GI50: 1.53 µM (inactive)
HCT-116
  GI50: 1.82 µM (inactive)
RPMI-8226
  GI50: 2.23 µM (inactive)
IGROV-1
  GI50: 2.28 µM (inactive)
HCC 2998
  GI50: 0.411 µM (active)
SF-539
  GI50: 1.98 µM (inactive)

## COc1ccc2[nH]cc(/C=C(/C)c3ccncc3)c2c1
HCT-15
  GI50: 1.19 µM
EKVX
  GI50: 15.6 µM (inactive)
OVCAR-4
  GI50: 65 µM (inactive)
MOLT-4
  GI50: 3.62 µM (inactive)
NCI-H23
  GI50: 2.59 µM (inactive)
SF-295
  GI50: 6.35 µM (inactive)
UACC-62
  GI50: 5.01 µM (inactive)
SK-MEL-2
  GI50: 5.38 µM (inactive)
NCI-H460
  GI50: 3.57 µM (inactive)
HOP-92
  GI50: 6.47 µM (inactive)
SK-MEL-28
  GI50: 4.94 µM (inactive)
HCT-116
  GI50: 4.15 µM (inactive)
RPMI-8226
  GI50: 5.89 µM (inactive)
IGROV-1
  GI50: 13.2 µM (inactive)
HCC 2998
  GI50: 8.24 µM (inactive)
SF-539
  GI50: 8.36 µM (inactive)

## C1=CN2C[n+]3ccc4ccccc4c3N=C2c2ccccc21
HCT-15
  GI50: 66.4 µM
EKVX
  GI50: 7.62 µM (inactive)
MOLT-4
  GI50: 1.91 µM (inactive)
NCI-H23
  GI50: 2.76 µM (inactive)
SF-295
  GI50: 2.69 µM (inactive)
UACC-62
  GI50: 1.93 µM (inactive)
SK-MEL-2
  GI50: 2.67 µM (inactive)
NCI-H460
  GI50: 3.54 µM (inactive)
ACHN
  GI50: 23.3 µM (inactive)
TK-10
  GI50: 15.3 µM (inactive)
HOP-92
  GI50: 2.04 µM (inactive)
Malme-3M
  GI50: 0.632 µM (active)
HCT-116
  GI50: 2.82 µM (inactive)
RPMI-8226
  GI50: 2.32 µM (inactive)
IGROV-1
  GI50: 3.74 µM (inactive)
SF-539
  GI50: 3.25 µM (inactive)
